# Test results taken from article PMC5531531, “A synthetic cationic antimicrobial peptide inhibits inflammatory response and the NLRP3 inflammasome by neutralizing LPS and ATP” (PLoS ONE, 2017).
# No end group written: not given here.
# Key:
# [1] = tested on: C57BL/6 mice injected with E. coli LPS; assay type: in vivo, mouse
# Method: The expression levels of IL-1β, IL-6 and TNF-α in the conditional medium, sera and lavage fluids were measured by ELISA as described in detail previously.
# The protein expression levels of iNOS, COX-2, ERK1/2, JNK1/2, p38, IκB-α, PKC, caspase-1 and the phosphorylation levels of ERK1/2, JNK1/2, p38, PKC-α, PKC-δ, IκB-α were determined by Western blotting as described in detail previously.
# Experiments were performed on 8-week-old male C57BL/6 mice purchased from the National Laboratory Animal Center (Taipei, Taiwan). The mice were randomized into the following four groups: Group I: control, intraperitoneal injection of 100 μl of sterile PBS, n = 3; Group II: LPS, intraperitoneal injection of 100 μl of sterile PBS containing E. coli LPS (10 mg/kg), n = 5; Group III: GW-A2+LPS, intraperitoneal injection of 100 μl of sterile PBS containing E. coli LPS (10 mg/kg) and GW-A2 (10 mg/kg), n = 5. Group IV: AMP, intraperitoneal injection of 100 μl of sterile PBS containing GW-A2 (10 mg/kg), n = 3. Sera were collected for analysis at 4 h after LPS injection. Peritoneal lavages, lungs and livers were collected for analysis at 24 h after LPS injection.
# Lungs, livers and kidney were fixed in 10% formalin and paraffin-embedded, then 4 um thick sections were cut and stained with hematoxylin and eosin was described in detail previously. Scoring of the polymorphonuclear neutrophils (PMN) infiltration was determined by counting in 5 randomly sampled fields by light microscopy at a magnification of x400 evaluated by a pathologist in National Defense Medical Center (Taipei, Taiwan).
# [2] = tested on: PGN-, Pam3CSK4- and CPS-activated RAW 264.7 macrophages; assay: NO generation induced by other bacterial components in RAW 264.7 (Griess reaction); assay type: cell-based, mouse; details: 24 h, Fig 1B
# Method: (§1) RAW 264.7 cells (2 × 10^5 in 0.5 ml of medium) were seeded in 24-well plates and then incubated with or without LPS (0.1 μg/ml) in the absence or presence of AMP for 24 h. The effects of AMP on NO production were measured indirectly by analyzing nitrite levels using the Griess reaction as described in detail previously.
# Fig 1 Effects of GW-A2 on the expression levels of inflammatory mediators. (A) RAW 264.7 macrophages were incubated for 30 min with or without GW-A2 or scrambled GW-A2, followed by incubation with or without 0.1 μg/ml of E. coli LPS or Salmonella LPS for 24 h. The levels of NO in the culture medium were measured by the Griess reaction. (B) RAW 264.7 macrophages were incubated for 30 min with or without GW-A2, followed by incubation with or without peptidoglycan (20 μg/ml), Pam3CSK4 (0.2 μg/ml) or capsular polysaccharide (3 μg/ml) for 24 h. The levels of NO in the culture medium were measured by the Griess reaction. (C) RAW 264.7 macrophages were incubated for 30 min with or without GW-A2, followed by incubation with or without 0.1 μg/ml of E. coli LPS for 24 h. The levels of iNOS and COX-2 were assessed by Western blotting and the histograms represent the expression levels compared to the LPS alone group obtained in three different experiments. (D) RAW 264.7 macrophages were incubated for 30 min with or without GW-A2, followed by incubation with or without 0.1 μg/ml of E. coli LPS for 6 h. The mRNA levels of iNOS and COX-2 were assessed by quantitative real-time PCR. (E and F) RAW 264.7 macrophages (E) and human THP-1 macrophages (F) were incubated for 30 min with or without GW-A2, followed by incubation with or without 0.1 μg/ml of E. coli LPS for 24 h. The levels of TNF-α and IL-6 were assayed by ELISA. […] The cell proliferation was measured by AlamarBlue® assay. The data are expressed as the mean ± SD of three independent experiments. *, ** and *** indicate significant differences, representing p < 0.05, p < 0.01 and p < 0.001, respectively compared to stimulation alone. # indicates significant differences, representing p < 0.05 compared to 2 μM of GW-A2 group.
# [3] = tested on: LPS-induced NO generation in RAW264.7 cells; assay: NO inhibitory assay (Griess reaction), LPS-activated RAW 264.7; assay type: cell-based, mouse
# Method: as §1
# [4] = tested on: cell surface of paraformaldehyde-fixed RAW 264.7 cells; assay: Flow cytometry, binding to the cell surface; assay type: cell-based, mouse; details: fixed RAW 264.7, GW-A2 30 min then 2 μg/ml LPS-FITC 30 min, 4°C; Fig 6A
# Method: For binding of GW-A2 to the cell surface, RAW 264.7 cells were fixed for 15 min with 2% paraformaldehyde and then incubated for 30 min with 20 μM of GW-A2-FITC at 4°C. After washing, cells were subjected to flow cytometric analysis on a FACSCalibur using CellQuest Software (Becton Dickinson Inc., San Jose, CA, USA). To assess binding of LPS to the cell surface, RAW 264.7 cells were fixed for 15 min with 2% paraformaldehyde and then incubated for 30 min with GW-A2. This was followed by incubation for 30 min with 2 μg/ml of LPS-FITC (F3665, Sigma) at 4°C. After washing, the cells were subjected to flow cytometric analysis.
# [5] = i.p. E. coli LPS 10 mg/kg with GW-A2 10 mg/kg, n = 5, sera 4 h after LPS, ELISA, Fig 5A
sequence,measurement,setting,value
GAKYAKIIYNYLKKIANALW [GW-A2],IL-1β level in the sera,[1]; [5],significantly reduced
same,IL-6 level in the sera,[1]; [5],significantly reduced
same,TNF-α level in the sera,[1]; [5],significantly reduced
same,Infiltration of PMN into the lung and liver,"[1]; i.p. LPS 10 mg/kg with GW-A2 10 mg/kg, 24 h, H&E, 5 fields x400, Fig 5D, 5E",reduced
same,"Expression levels of iNOS, COX-2 and NLRP3 in the lung and liver","[1]; i.p. LPS 10 mg/kg with GW-A2 10 mg/kg, tissues 24 h after LPS, Western blot, Fig 5C",reduced
same,Adverse effects in GW-A2-injected mice,"[1]; mouse, in vivo, ip, 10 mg/kg",no adverse effects were observed
same,Behaviors of GW-A2-injected mice versus control mice,"[1]; mouse, in vivo, ip, 10 mg/kg",not significantly different
same,NO inhibitory activity in Pam3CSK4-activated macrophages,[2]; Pam3CSK4 0.2 μg/ml,much lower than that in LPS-activated macrophages
same,NO inhibitory activity in CPS-activated macrophages,[2]; capsular polysaccharide 3 μg/ml,much lower than that in LPS-activated macrophages
same,NO inhibitory activity in PGN-activated macrophages,[2]; peptidoglycan 20 μg/ml,much lower than that in LPS-activated macrophages
same,"NO generation, GW-A2 added 0–8 h post LPS stimulation (therapeutic)","[3]; 2 μM GW-A2, Fig 3B",significantly inhibited
same,"NO generation, GW-A2 added 16 h after LPS stimulation","[3]; 2 μM GW-A2, Fig 3B",no effect
same,NO generation induced by E. coli-LPS,"[3]; RAW 264.7, 30 min peptide then 0.1 μg/ml E. coli LPS 24 h, Griess, Fig 1A",inhibited by GW-A2 in a dose-dependent manner
same,NO generation induced by Salmonella-LPS,"[3]; RAW 264.7, 30 min peptide then 0.1 μg/ml Salmonella LPS 24 h, Griess, Fig 1A",inhibited by GW-A2 in a dose-dependent manner
same,"LPS-induced NO generation, GW-A2 added with LPS or 24 h before LPS (prophylactic)","[3]; pre-incubation 0–24 h, then LPS 24 h, Fig 3A",significantly reduce
same,"LPS-induced NO generation, GW-A2 washed off before LPS stimulation","[3]; pre-incubation 1, 3, 6, 12 or 24 h, supernatant replaced, LPS 24 h, Fig 3C",not able to inhibit
same,Competition with LPS-FITC for cell surface binding,[4],did not compete
same,LPS-FITC binding to the cell surface in presence of GW-A2,[4],increase in LPS-FITC binding to the cell surface
